79 molecules from PMC12040169 (PLOS Biology, 2025) can be followed below.

Each structure is given as a SMILES string.

The data set can be described thus: in vitro. The conditions noted are these: human, hela cells, % viability.

As to `CCN(CCc1nc2cc(OC)ccc2[nH]1)C(=O)c1ccc(=O)n(C)n1` [CBK307712], the viability at 28.5 h, 10 µM was 108%. Same read-out and setting: in the case of `CS(=O)(=O)N1CCCC(C(=O)Nc2ccc(S(N)(=O)=O)cc2)C1` (stereo not shown) [CBK268490] it was 83%. In the case of `CCN(CC)C(=O)Cn1nc2c(C)cc3cc(C)ccc3n2c1=O` [CBK283871], the viability at 28.5 h, 10 µM is 86.4%. Still for that read-out and setting: in the case of `O=C(Nc1cccc2ccccc12)c1ccc(CSCc2ccccc2)cc1` [CBK263759] it was 105%; in that of `Cc1[nH]c(=O)[nH]c(=O)c1CC(=O)N1CCCCC1CN1CCCCC1` (stereo not shown) [CBK286344], 98.8%; in that of `O=C(O)CNC(=O)CNC(=O)Cn1c(-c2ccccc2)cc2ccccc21` [CBK286550], 89.1%.

With `COc1cc2c(cc1OC)CN(Cc1ccccc1[N+](=O)[O-])CC2` [CBK261535], the viability at 28.5 h, 10 µM was found to be 89.8%.

`c1ccc2cc(-c3cn4ccnc4c(Nc4ccc(N5CCOCC5)cc4)n3)ccc2c1` [CBK066359]: the viability at 28.5 h, 10 µM was found to be 108%.

With `O=C(c1[nH]c2ccccc2c1NS(=O)(=O)/C=C/c1ccccc1)N1CCOCC1` [CBK050068], the viability at 28.5 h, 10 µM turned out to be 93.1%.

Consider `Cc1cc(NC(=O)C(C)(C)Oc2ccc(Cl)cc2)nc2c1c(=O)oc1ccccc12` [CBK291132], for which the viability at 28.5 h, 10 µM came to 112%. For the molecule `CSc1ccc(C(=O)C(C)(C)N2CCOCC2)cc1` [CBK028870], for the setting “bulk resorufin, single well”, the viability at 28.5 h, 10 µM was 107%. `CC(C)(C)NC(=O)Cn1cnc2c(cnn2-c2ccccc2)c1=O` [CBK269586]: the viability at 28.5 h, 10 µM came to 91.6%.

In the case of `Nc1nccc2c1ncn2[C@H]1C[C@@H](O)[C@@H](CO)O1` [CBK201157], the viability at 28.5 h, 10 µM came out at 97.1%. Same read-out and setting: in the case of `CN1CCN(c2ccc(C(=O)NC3CCCC3)cc2)CC1` [CBK200119] it was 78.5%; in that of `NCCCNc1ccc(C(=O)Nc2ccc(Cl)cc2)cc1[N+](=O)[O-]` [CBK267880], 116%; in that of `CCn1nc(C)c(C(C)NC(=O)c2ccnn2C(F)F)c1C` (stereo not shown) [CBK281535], 88.4%. Same read-out and setting: in the case of `O=C(Nc1ccc(-c2noc(COc3ccc(Br)cc3)n2)cc1)c1ccc2c(c1)OCO2` [CBK266692] it was 97.2%. Consider `Cc1ccc2[nH]c3c(c2c1)CCN(C=O)C31CCN(Cc2ccc(OC(F)F)cc2)CC1` [CBK040438], for which the viability at 28.5 h, 10 µM is 101%. The same measure, in the same setting: in the case of `O=C(NCCC1SC(NC2CC3C=CC2C3)=NC1=O)c1ccccc1Cl` (stereo not shown) [CBK200062] it was 113%. Same read-out and setting: in the case of `CCCCn1c(NCc2nc3ccccc3n2C)nc2ccccc21` [CBK264177] it was 87.2%.

For `COCCn1c(=O)n(Cc2ccccc2F)c2cccnc21` [CBK283965], the viability at 28.5 h, 10 µM came to 88.6%. For `O=C(/C=C/c1ccc2c(c1)OCO2)NCc1ccc(-c2csnn2)cc1` [CBK149297], the viability at 28.5 h, 10 µM amounted to 88.1%.

In the case of `Cc1csc2c(C3CCN(C(=O)c4ccnn4C)CC3)nc(C)n12` [CBK285249], the viability at 28.5 h, 10 µM was determined as 94.3%. On the same count and under the same terms, in the case of `O=C(COc1cccnc1)N1CCN(c2ncccn2)CC1` [CBK144521] it was 86.5%; in that of `COCc1cc(CC2(NCc3ccc(NC(C)=O)cc3)COC2)no1` [CBK289701], 110%.

On to `O=C(N[C@H]1CO[C@H]2[C@@H]1OC[C@@H]2n1cc(-c2ccccc2)nn1)N1CCOCC1` [CBK289503], for which the viability at 28.5 h, 10 µM was 87.7%. The same measure, in the same setting: in the case of `CSc1cc(-c2ccc(F)cc2)n[nH]1` [CBK028809] it was 123%; in that of `CC1(C)CCN(Cc2nnnn2-c2ccc(S(C)(=O)=O)cc2)C1` [CBK306179], 94.7%; in that of `Cc1cccc(CSc2nnc(C(C)NC(=O)c3ccccc3F)n2C)c1` (stereo not shown) [CBK269732], 91.6%. On the same count and under the same terms, in the case of `CC(C)CCNCc1ccc(-c2cn(CC(=O)NCCc3ccccc3)nn2)cc1` [CBK164740] it was 95.9%. Still for that read-out and setting: in the case of `O=C(O)CCC(=O)Nc1ccc(C(=O)O)cc1` [CBK260952] it was 96.6%; in that of `O=[N+]([O-])c1ccccc1N/C(=N/S(=O)(=O)c1ccccc1)c1ccccc1` [CBK262336], 85.8%.

`COc1ccc2cc(CNc3ccc(CCc4nc5ccccc5n4C)cc3)c(=O)[nH]c2c1` [CBK286159]: the viability at 28.5 h, 10 µM came out at 103%. Same read-out and setting: in the case of `O=C1NC(=O)C(CCCCN2CCCC3(CCN(C(=O)c4ccoc4)C3)C2)N1` (stereo not shown) [CBK132833] it was 96.8%.

On to `Cc1ccc(Cl)cc1N1C(=O)NC(=O)C(CCc2ccccn2)(CCc2ccccn2)C1=O` [CBK268838], for which the viability at 28.5 h, 10 µM (bulk resorufin, single well) is 98.6%. With `CC(=O)N(Cc1ccccc1)C1CCCc2c1[nH]c1ccc(C)cc21` (stereo not shown) [CBK261810], the viability at 28.5 h, 10 µM worked out at 98%. Turning to `COc1ccc(-c2cc(C(=O)OCc3ccccn3)c3ccccc3n2)cc1` [CBK296114], the viability at 28.5 h, 10 µM came to 108%. Still for that read-out and setting: in the case of `O=C(O)COC(=O)C1C(c2ccccc2)C(C(=O)O)C1c1ccccc1` (stereo not shown) [CBK263881] it was 85.9%.

In the case of `Cc1ccc(Cn2c(CN3CCOCC3)nc3c2c(=O)n(C)c(=O)n3C)cc1` [CBK269583], the viability at 28.5 h, 10 µM turned out to be 91.1%.

As for `O=C(CCC(=O)c1ccccc1)NC1CCc2ccccc21` (stereo not shown) [CBK003351], the viability at 28.5 h, 10 µM is 103%. In the case of `CS(=O)(=O)Nc1cc2ccccc2c(-c2ccc(OCc3ccccc3)c(F)c2)n1` [CBK073785], the viability at 28.5 h, 10 µM was determined as 92.7%. On to `O=C(Nc1cncc(N2CCNCC2)n1)c1coc2c1C(=O)CCC2` [CBK004229T], for which the viability at 28.5 h, 10 µM was found to be 96.8%. On to `Cc1cc(NS(=O)(=O)c2ccc(Cl)c(Cl)c2)n(C)n1` [CBK067254], for which the viability at 28.5 h, 10 µM worked out at 109%. On the same count and under the same terms, in the case of `O=S(=O)(NCc1cccc(Cl)c1)c1csc2ccnc(N3CCNCC3)c12` [CBK045595C] it was 88.6%; in that of `CC(=O)[C@H]1C[C@@H](CC(=O)NCc2csc(-c3ccccc3)n2)C1(C)C` [CBK092335], 109%. As for `O=C(NC(=S)Nc1ccc(Br)cc1)c1ccccc1` [CBK092022], the viability at 28.5 h, 10 µM was found to be 83.5%.

Turning to `COc1ccc(OC(C)C(=O)Nc2cc3oc4ccccc4c3cc2OC)cc1` (stereo not shown) [CBK266751], the viability at 28.5 h, 10 µM worked out at 100%.

As to `O=C(CN1CCC(NC(=O)c2cccs2)CC1)Nc1cc(F)ccc1F` [CBK305997], the viability at 28.5 h, 10 µM was determined as 102%. On the same count and under the same terms, in the case of `c1ccc2oc(NC3=NCN(Cc4ccc5c(c4)OCO5)CN3)nc2c1` [CBK267964] it was 95.1%; in that of `Cc1ncc([N+](=O)[O-])n1CC(=O)NC1CCCCCC1` [CBK269194], 97.4%.

Take `Cc1onc(-c2ccccc2)c1-c1n[nH]c(=S)o1` [CBK009044]: the viability at 28.5 h, 10 µM turned out to be 76.7%. Turning to `COc1ccc(S(=O)(=O)Nc2ccc3oc(-c4ccccc4F)cc(=O)c3c2)cc1` [CBK300518], the viability at 28.5 h, 10 µM was 90.1%. Still for that read-out and setting: in the case of `COCCn1cc(C(=O)N2CCOC3CCCC32)c2ccccc21` (stereo not shown) [CBK305156] it was 86.1%; in that of `OC(COCc1ccccc1)CN1CCN(c2ccccc2F)CC1` (stereo not shown) [CBK074851C], 92.6%. Take `CC1CN(C)C(c2ccccc2)C(C)C12NC(=O)N=C2O` (stereo not shown) [CBK288428]: the viability at 28.5 h, 10 µM turned out to be 88.1%. Take `O=C(N/N=C/c1c[nH]nc1-c1ccccc1)c1cccnc1` [CBK262461]: the viability at 28.5 h, 10 µM is 101%. `C=CCn1c(Cc2csc(NC(=O)c3ccc(OC)cc3O)n2)n[nH]c1=S` [CBK296752]: the viability at 28.5 h, 10 µM was 104%. The same measure, in the same setting: in the case of `c1ccc2c(c1)OCC(COc1ccnc(N3CCCN(CCc4ccc5ccccc5c4)CC3)n1)O2` (stereo not shown) [CBK083983] it was 90.7%; in that of `O=C(O)CCC(=O)NNC(=O)c1ccccc1[N+](=O)[O-]` [CBK261079], 95.8%. For `CN(C(=O)CN1C2CCC1CC(O)(c1ccco1)C2)C1CCCCC1` (stereo not shown) [CBK284108], the viability at 28.5 h, 10 µM came to 102%.

As for `N#C/C(=C\c1ccc2noc(-c3ccccc3)c2c1)c1nc(-c2cc3ccccc3oc2=O)cs1` [CBK267269], the viability at 28.5 h, 10 µM was determined as 90.2%. The same measure, in the same setting: in the case of `C[C@@H]1CN2CCCC2CN1Cc1ccc2ncccc2c1` (stereo partly shown) [CBK284555] it was 99.3%; in that of `CCOc1ccc(N(Cc2cc3cc(C)ccc3nc2O)S(=O)(=O)c2ccccc2)cc1` [CBK267924], 120%. For the molecule `Cc1ccc(C(=O)Nc2cccc(-c3ccc4nnc(C)n4n3)c2)cc1` [CBK287683], the viability at 28.5 h, 10 µM came out at 82.8%.

Turning to `CCOC(=O)C1CSCCN1C(=O)c1cc(C)n(-c2nccs2)c1C` (stereo not shown) [CBK305884], the viability at 28.5 h, 10 µM turned out to be 75%. Same read-out and setting: in the case of `Cc1ccc2nc(-c3ccccc3)c(CN3CCCC3)c(O)c2c1` [CBK264736] it was 106%; in that of `Cc1cc2nc(/C(C#N)=C/c3ccncc3)[nH]c2cc1C` [CBK268745], 87.7%. As for `O=S(=O)(c1ccc(F)cc1F)N1CCN(Cc2ccc3c(c2)OCO3)CC1` [CBK074744], the viability at 28.5 h, 10 µM was 91.7%.

`COc1ccc(C(=O)N2CCN(CC(=O)N3CCOCC3)CC2)cc1` [CBK133150]: the viability at 28.5 h, 10 µM came to 108%. On the same count and under the same terms, in the case of `CCOC(=O)c1sc2nc(C(C)N3CCOCC3)[nH]c(=O)c2c1C` (stereo not shown) [CBK305862] it was 82.5%; in that of `CN(Cc1ccc(-c2ccc(CO)cc2)nc1)C1CCN(C(=O)OC(C)(C)C)CC1` [CBK173453], 81.3%.

With `COCCN1C(=O)CO[C@H]2CN(C(=O)Nc3ccc(F)cc3)C[C@H]21` [CBK289705], the viability at 28.5 h, 10 µM stood at 85.3%. The same measure, in the same setting: in the case of `Cc1ccccc1C(=O)NC(NCC1CCCO1)C(Cl)(Cl)Cl` (stereo not shown) [CBK262273] it was 91.9%; in that of `CC(C)/C=N/N=C1\NC(=O)CS1` [CBK023706], 90.7%; in that of `CN(C(=O)C1CCc2nn(C)c(=O)n2C1)C1Cc2ccccc2C1` (stereo not shown) [CBK307108], 107%.

For the molecule `O=C(O)c1cc(Nc2nc(N3CCOCC3)nc(N3CCOCC3)n2)ccc1Cl` [CBK268081], the viability at 28.5 h, 10 µM is 97.5%. Same read-out and setting: in the case of `CCOc1ccc(-c2nc(C#N)c(NCCN3CCOCC3)o2)cc1` [CBK265867] it was 112%; in that of `Cc1c(C(=O)N(C)Cc2csc3ccccc23)nnn1C1CCNCC1` [CBK304103], 84.6%; in that of `CCn1cncc1CN1CC2CCCC(O)(c3ccc(C)cc3)C2C1` (stereo not shown) [CBK284374], 90%.

Broadly, the viability is a read-out of living cells in per cent, often relative to untreated cells.
